How the values were obtained:
[1] = biological target: T1, recombinant human JAK1 kinase domain protein (Residues 854-1154) (Homo sapiens, UniProt P23458); experiment: JAK1 biochemical assay (LabChip mobility shift, Ki); conditions: read-out: Biochem JAK1 Ki
T1 construct: human JAK1 kinase domain protein (Residues 854-1154); purchased Proteros Biostructures GmbH (Martinsried, Germany); host or cells: insect cells

[2] = tested on: IL-13-stimulated STAT6 phosphorylation in human lung bronchial epithelial BEAS-2B cell line; experiment: P-STAT6 BEAS-2B + IL-13 cell assay; assay type: cell-based; conditions: Homo sapiens, BEAS-2B, BEAS2B cells, IL13 stimulation; read-out: Cellular JAK1 PSTAT6 BEAS2B + IL13
Outline: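 BEAS-2B cells grown 48 h at 37 °C, pre-treated 1 h with compound (10-point 1:2 dilution curve), then stimulated 15 min with human recombinant IL-13 (250 ng/mL stock). Lysate P-STAT6 (Tyr641) read by MSD sandwich ELISA with total-STAT6 capture; IC50 from four-parameter logistic fit of control-normalised data.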

[3] = biological target: Recombinant human JAK2 kinase domain protein (Residues 812-1132) (Homo sapiens, UniProt O60674); experiment: JAK2 biochemical assay (LabChip mobility shift, Ki); conditions: Biochem JAK2 Ki
Recombinant human JAK2 kinase domain protein (Residues 812-1132), sequence (O60674 812-1132): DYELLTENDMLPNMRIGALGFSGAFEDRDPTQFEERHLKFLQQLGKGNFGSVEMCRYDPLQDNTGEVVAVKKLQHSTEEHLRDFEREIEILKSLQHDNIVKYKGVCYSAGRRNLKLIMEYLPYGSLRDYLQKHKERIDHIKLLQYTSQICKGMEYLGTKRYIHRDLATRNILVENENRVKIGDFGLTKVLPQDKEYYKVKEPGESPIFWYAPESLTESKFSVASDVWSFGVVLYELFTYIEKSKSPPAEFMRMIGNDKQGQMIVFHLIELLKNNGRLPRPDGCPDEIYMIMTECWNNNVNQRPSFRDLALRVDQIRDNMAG

T1 sequence (P23458 854-1154): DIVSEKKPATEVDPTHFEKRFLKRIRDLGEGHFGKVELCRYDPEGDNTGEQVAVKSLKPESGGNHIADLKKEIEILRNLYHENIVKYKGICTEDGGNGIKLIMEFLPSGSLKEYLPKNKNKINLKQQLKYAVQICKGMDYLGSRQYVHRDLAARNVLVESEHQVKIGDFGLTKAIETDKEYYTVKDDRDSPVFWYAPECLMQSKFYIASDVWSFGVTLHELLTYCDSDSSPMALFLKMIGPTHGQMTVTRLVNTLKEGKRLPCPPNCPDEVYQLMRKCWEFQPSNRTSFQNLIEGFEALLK

| Compound | Ki [1] [nM] | Ki [3] [nM] | IC50 [2] [nM] |
| --- | --- | --- | --- |
| Cc1ccc(Oc2ccc(OC(F)F)c(-c3nn(C)cc3NC(=O)c3cnn4cccnc34)c2)cc1C(=O)N1CCNCC1 [Example 54, N-[3-[2-(difluoromethoxy)-5-[4-methyl-3-(piperazine-1-carbonyl)phenoxy]phenyl]-1-methyl-pyrazol-4-yl]pyrazolo[1,5-a]pyrimidine-3-carboxamide] | 0.43 | 0.42 | 58 |
| CN1CCC(n2cc(Oc3ccc(OC(F)F)c(-c4nn(C)cc4NC(=O)c4cnn5cccnc45)c3)cn2)C1 (racemic) [Example 140, N-[3-[2-(difluoromethoxy)-5-[1-[rac-(3S)-1-methylpyrrolidin-3-yl]pyrazol-4-yl]oxy-phenyl]-1-methyl-pyrazol-4-yl]pyrazolo[1,5-a]pyrimidine-3-carboxamide] | 2.6 | 1.9 | 44 |
| CN(C)C1CCCN(C(=O)c2cccc(Oc3ccc(OC(F)F)c(-c4nn(C)cc4NC(=O)c4cnn5cccnc45)c3)c2)C1 (racemic) [Example 213, N-[3-[2-(difluoromethoxy)-5-[3-[rac-(3R)-3-(dimethylamino)piperidine-1-carbonyl]phenoxy]phenyl]-1-methyl-pyrazol-4-yl]pyrazolo[1,5-a]pyrimidine-3-carboxamide] | 1.2 | 0.89 | 49 |
| NCc1cccc(Oc2ccc(OC(F)F)c(-c3n[nH]cc3NC(=O)c3cnn4cccnc34)c2)c1F [Example 24, N-[3-[5-[3-(aminomethyl)-2-fluoro-phenoxy]-2-(difluoromethoxy)phenyl]-1H-pyrazol-4-yl]pyrazolo[1,5-a]pyrimidine-3-carboxamide] | 0.64 | 0.56 | 22 |
| CN1CCC(n2cc(Oc3ccc(OC(F)F)c(-c4nn(C)cc4NC(=O)c4cnn5cccnc45)c3)cn2)CC1 [Example 203, N-[3-[2-(difluoromethoxy)-5-[1-(1-methyl-4-piperidyl)pyrazol-4-yl]oxy-phenyl]-1-methyl-pyrazol-4-yl]pyrazolo[1,5-a]pyrimidine-3-carboxamide] | 2.5 | 2.3 | 75 |
| CN1CCCC1Cn1cc(NC(=O)c2cnn3cccnc23)c(-c2cc(Oc3cccc(C4CNCCO4)c3)ccc2OC(F)F)n1 (racemic) [Example 41, N-[3-[2-(difluoromethoxy)-5-(3-morpholin-2-ylphenoxy)phenyl]-1-[[rac-(2R)-1-methylpyrrolidin-2-yl]methyl]pyrazol-4-yl]pyrazolo[1,5-a]pyrimidine-3-carboxamide] | 1.4 | 4.4 | 210 |
| CN1CCN(C(=O)c2cccc(Oc3ccc(OC(F)F)c(-c4nn(C)cc4NC(=O)c4cnn5cccnc45)c3)c2)CC1 [Example 84, N-[3-[2-(difluoromethoxy)-5-[3-(4-methylpiperazine-1-carbonyl)phenoxy]phenyl]-1-methyl-pyrazol-4-yl]pyrazolo[1,5-a]pyrimidine-3-carboxamide] | 0.48 | 0.47 | 74 |
| Cc1ccc(Oc2ccc(OC(F)F)c(-c3nn(C)cc3NC(=O)c3cnn4cccnc34)c2)cc1C(=O)N1CCN(C)CC1 [Example 50, N-[3-[2-(difluoromethoxy)-5-[4-methyl-3-(4-methylpiperazine-1-carbonyl)phenoxy]phenyl]-1-methyl-pyrazol-4-yl]pyrazolo[1,5-a]pyrimidine-3-carboxamide] | 0.64 | 0.46 | 35 |
| CN(C)C1CCN(C(=O)c2cccc(Oc3ccc(OC(F)F)c(-c4nn(C)cc4NC(=O)c4cnn5cccnc45)c3)c2)C1 (racemic) [Example 211, N-[3-[2-(difluoromethoxy)-5-[3-[rac-(3S)-3-(dimethylamino)pyrrolidine-1-carbonyl]phenoxy]phenyl]-1-methyl-pyrazol-4-yl]pyrazolo[1,5-a]pyrimidine-3-carboxamide] | 0.98 | 0.58 | 54 |

The next lines start with results.

| Ki [1] [nM] | Ki [3] [nM] | Compound | IC50 [2] [nM] |
| --- | --- | --- | --- |
| 0.48 | 0.54 | Cn1cc(NC(=O)c2cnn3cccnc23)c(-c2cc(Oc3ccc(F)c(C4(O)CNC4)c3)ccc2OC(F)F)n1 [Example 103, N-[3-[2-(difluoromethoxy)-5-[4-fluoro-3-(3-hydroxyazetidin-3-yl)phenoxy]phenyl]-1-methyl-pyrazol-4-yl]pyrazolo[1,5-a]pyrimidine-3-carboxamide] | 260 |
| 0.28 | 0.17 | Cn1cc(NC(=O)c2cnn3cccnc23)c(-c2cc(Oc3ccc(CC(=O)N4CCC4)cc3)ccc2OC(F)F)n1 [Example 149, N-[3-[5-[4-[2-(azetidin-1-yl)-2-oxo-ethyl]phenoxy]-2-(difluoromethoxy)phenyl]-1-methyl-pyrazol-4-yl]pyrazolo[1,5-a]pyrimidine-3-carboxamide] | 20 |
| 0.37 | 0.35 | Cn1cc(NC(=O)c2cnn3cccnc23)c(-c2cc(Oc3cccc(CNCCO)c3)ccc2OC(F)F)n1 [Example 23, N-[3-[2-(difluoromethoxy)-5-[3-[(2-hydroxyethylamino)methyl]phenoxy]phenyl]-1-methyl-pyrazol-4-yl]pyrazolo[1,5-a]pyrimidine-3-carboxamide] | 24 |
| 0.21 | 0.22 | Cn1cc(NC(=O)c2cnn3cccnc23)c(-c2cc(Oc3ccc4c(c3)CNCC4)ccc2OC(F)F)n1 [Example 150, N-[3-[2-(difluoromethoxy)-5-(1,2,3,4-tetrahydroisoquinolin-7-yloxy)phenyl]-1-methyl-pyrazol-4-yl]pyrazolo[1,5-a]pyrimidine-3-carboxamide] | 16 |
| 1.5 | 0.59 | Cn1cc(NC(=O)c2cnn3cccnc23)c(-c2cc(Oc3ccc(CN)cc3)ccc2OC(F)F)n1 [Example 20, N-[3-[5-[4-(aminomethyl)phenoxy]-2-(difluoromethoxy)phenyl]-1-methyl-pyrazol-4-yl]pyrazolo[1,5-a]pyrimidine-3-carboxamide] | 19 |
| 0.46 | 0.23 | CN(C)C(=O)c1ccc(Oc2ccc(OC(F)F)c(-c3n[nH]cc3NC(=O)c3cnn4cccnc34)c2)cc1 [Example 130, N-[3-[2-(difluoromethoxy)-5-[4-(dimethylcarbamoyl)phenoxy]phenyl]-1-1H-pyrazol-4-yl]pyrazolo[1,5-a]pyrimidine-3-carboxamide] | 24 |
| 1.5 | 0.84 | Cn1cc(NC(=O)c2cnn3cccnc23)c(-c2cc(Oc3cnn(C4CNC4)c3)ccc2OC(F)F)n1 [Example 116, N-[3-[5-[l-(azetidin-3-yl)pyrazol-4-yl]oxy-2-(difluoromethoxy)phenyl]-1-methyl-pyrazol-4-yl]pyrazolo[1,5-a]pyrimidine-3-carboxamide] | 95 |
| 1.9 | 0.34 | Cn1cc(NC(=O)c2cnn3cccnc23)c(-c2cc(Oc3ccc(CN4CCCCC4CO)cc3)ccc2OC(F)F)n1 (racemic) [Example 167, N-[3-[2-(difluoromethoxy)-5-[4-[[rac-(2S)-2-(hydroxymethyl)-1-piperidyl]methyl]phenoxy]phenyl]-1-methyl-pyrazol-4-yl]pyrazolo[1,5-a]pyrimidine-3-carboxamide] | 26 |

— patent US12528812B2 (Genentech, Inc., priority 2020, dated 2026)
